Earlier results as cited in patent US11384033B2, “Compositions with improved urease-inhibiting effect comprising (thio)phosphoric acid triamide and further compounds such as amines and colorants” (BASF SE, priority 2014, dated 2022).

Settings: de-ionized water at 25° C. and atmospheric pressure

CC(O)CO (stereo not shown) [propane-1,2-diol]
pKa value: 14.9
